Assay results taken from PMC11040665, “Aminothiazolone Inhibitors Disrupt the Protein–RNA Interaction of METTL16 and Modulate the m^6A RNA Modification” (JACS Au, 2024).

Columns and labels:
[1] = tested on: total m^6A level in MDA-MB-231 cells; assay: Total RNA m6A level by dot blot, MDA-MB-231; format: cell-based, human; conditions: 50 μM, 24 h, 45 potassium salt used
Description: (§1) MDA-MB-231 cells and A549 cells were seeded into 6-well plates at 70% confluency and cultured overnight. Afterward they were treated with compound 45 potassium salt for 24 h. After the compound treatment, the cell culture medium was discarded and cells were washed with DPBS three times. The total RNA was then purified using RNeasy Mini Kit (Qiagen 74106) following the manufacturer’s protocol.
(§2) Concentrations of the total RNA were measured by NanoDrop and each sample was calibrated to the same concentration using RNase-free water. RNA samples were heated at 95 °C for 3 min and immediately chilled on ice to disrupt the secondary structures. The total RNA (1 μg) was dropped onto a positively charged nylon membrane (Invitrogen, AM10102). The membrane with RNA side up was immediately transferred to the UVP Cross-linker (Analytik Jena) with […] bulb and cross-linked under the UV light for 5 min two times, then the membrane was washed in TBST (1xTBS with 0.1% Tween 20) for 10 min at room temperature and blocked with 5% skimmed milk in TBST for 1 h at room temperature. The membrane was incubated with the anti-m^6A antibody (Synaptic systems 202003, 1 μg/mL) overnight at 4 °C. […] The membrane was further washed with TBST and detected with the Amersham ECL Prime Western Blotting Detection Reagent. […]

[2] = molecular target: T1, METTL16 MTD–GGACU-containing RNA interaction (Homo sapiens, UniProt Q86W50); assay: EMSA with GGACU-containing RNA; conditions: 5 nM RNA, 600 nM METTL16 MTD
T1 sequence (Q86W50 1-291): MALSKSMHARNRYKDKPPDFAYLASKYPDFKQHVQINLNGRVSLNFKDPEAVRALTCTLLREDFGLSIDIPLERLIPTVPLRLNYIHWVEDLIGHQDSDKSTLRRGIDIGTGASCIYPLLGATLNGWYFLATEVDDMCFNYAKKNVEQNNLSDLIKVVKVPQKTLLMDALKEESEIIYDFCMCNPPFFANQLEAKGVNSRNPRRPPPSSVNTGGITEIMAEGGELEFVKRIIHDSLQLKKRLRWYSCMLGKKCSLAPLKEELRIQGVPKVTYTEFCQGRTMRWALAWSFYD
Description: METTL16 MTD protein (1–291) was incubated with the indicated compound or DMSO in a buffer containing 20 mM HEPES, pH 7.5, 50 mM NaCl, 0.05% v/v Tween 20, and 0.05 mg/mL BGG at room temperature for 30 min; subsequently, FAM-MAT2A-hp1 RNA probe was added and incubated at room temperature for 10 min, the final of protein and RNA are 50 and 5 nM respectively, and 1% DMSO was used as the control. […] The gel was detected and imaged by Chemi Doc MP (Bio-Rad). […] EMSA for testing compounds with GGAUC-motif containing RNA and METTL16 MTD interaction was performed using the method described above, expecting that the final of METTL16 MTD protein and FAM-labeled-GGACU RNA are 600 nM and 5 nM respectively. EMSA for RNA binding: indicated concentrations of fluorophore-labeled RNA were incubated with indicated concentrations of protein in EMSA buffer for 15 min at room temperature, then loaded to native PAGE gels and imaged with the method described above.

[3] = molecular target: T2, METTL16–MAT2A-hp1 mRNA interaction (METTL16 MTD 1–291, FAM-labeled MAT2A-hp1 RNA) (Homo sapiens, UniProt Q86W50); assay: Fluorescence polarization (FP) assay, disruption of METTL16 binding to FAM-MAT2A-hp1 RNA
T2 sequence (Q86W50 1-291): T1 sequence (Q86W50 1-291)
Description: The binding of METTL16 to the FAM-labeled RNA probe formed a complex that led to a higher FP signal in comparison to that of the unbound RNA probe (Figure 2A). […] The Z-factor of 0.91 indicated the suitability of the assay condition (Figure S2D). […] In both FP assay and EMSA, a final concentration of 50 nM METTL16 and 5 nM FAM-MAT2A-hp was used. The METTL16 MTD (amino acids 1–291) was used in this study unless specifically indicated otherwise.
The FP assay was performed using 384-well black plates (Corning #4514) in a total reaction volume of 20 μL, with the final concentration of protein and RNA being 50 and 5 nM respectively. Compounds were diluted in FP buffer and incubated with protein for 30 min at room temperature, then FAM-MAT2A-hp1 RNA probe was added and the fluorescence polarization was measured using a TECAN Spark plate reader, under the excitation wavelength of 485 nm and the emission wavelength of 535 nm with bandwidth of 20 nm. 1% DMSO was used as the control. The inhibition was calculated with the equation: inhibition = 100%(Control – X)/(Control – Blank); Control: DMSO with protein and FAM-RNA; Blank: DMSO with FAM-RNA; X: compound with protein and FAM-RNA. The IC50 value was further determined using GraphPad Prism 9. […] The polarization was measured under an excitation wavelength of 630 nm and an emission wavelength of 680 nm with a bandwidth of 20 nm.

[4] = tested on: MAT2A mRNA splicing in A549 cells; assay: MAT2A splicing by RT-qPCR, A549; format: cell-based, human; conditions: 50 μM, 24 h, 45 potassium salt used
Description: as §1
(§3) The reverse transcription was performed by using High-Capacity cDNA Reverse Transcription Kits (Thermo Fisher 4368814) with 500 ng of total RNA. qPCR was performed using PowerUp SYBR Green Master Mix (Thermo Fisher, A25742) with a 10 μL volume. The cycling was performed using Bio-Rad CFX96 Real-Time PCR Detection System following the standard cycling mode (primer Tm ≥ 60 °C) on the manufacturer’s protocol. The p value was calculated using GraphPad Prism software’s one-way ANOVA analysis.
Figure S10. Cellular evaluation of selected METTL16 inhibitors. (A)Suppression on cell viability in A549 cells.
Data are shown as mean ± SEM, n=3. (B) Suppression on cell viability in HCT116 cells. Data are shown as mean ± SEM, n=3. (C) Spliced MAT2A in A549 cells increased after treated 24 h with indicated dose of 45. Data are shown as mean ± SEM, n=4. **P<0.01, ns P>0.05. (D) Total RNA m 6A level in A549 cells after treated 24 h with 45. 45 potassium salt was used for MAT2A splicing and total RNA m 6A level evaluation. […]

[5] = molecular target: T3, METTL16 (1-291)–FAM-MAT2A-hp1 RNA (Homo sapiens, UniProt Q86W50); assay: FP assay after incubating SAM with METTL16; format: binding; conditions: SAM incubated with METTL16 before the FP assay
T3 construct: METTL16 MTD (1–291) was subcloned to pOPINB plasmid; His tag followed by HRV 3C cleavage site (N, cleaved yes); made in house; host or cells: E. coli Rosetta (DE3)
T3 sequence (Q86W50 1-291): T1 sequence (Q86W50 1-291)

[6] = tested on: MAT2A mRNA splicing in MDA-MB-231 cells; assay: MAT2A splicing by RT-qPCR, MDA-MB-231; format: cell-based, human; conditions: 50 μM, 24 h, 45 potassium salt used
Description: as §1, §3

[7] = tested on: total RNA m^6A level in A549 cells; assay: Total RNA m6A level by dot blot, A549; format: cell-based, human; conditions: 50 μM, 24 h, 45 potassium salt used
Description: as §1, §2

METTL16 MTD (1-291) = molecular target: T4, METTL16 MTD (1-291) (Homo sapiens, UniProt Q86W50); assay: Isothermal titration calorimetry (ITC); format: binding; conditions: 700 μM METTL16 (1-291) titrated into 50 μM compound, 25 °C
T4 construct: METTL16 MTD (1–291) was subcloned to pOPINB plasmid; His tag followed by HRV 3C cleavage site (N, cleaved yes); made in house; host or cells: E. coli Rosetta (DE3)
T4 sequence (Q86W50 1-291): T1 sequence (Q86W50 1-291)
Description: ITC was performed by using the MicroCal PEAQ-ITC system (Malvern) at 25 °C. METTL16 MTD protein was directly used after purification. 700 μM protein in SEC buffer (20 mM pH 7.5, 200 mM NaCl, 0.5 mM TCEP,2% v/v glycerol) supplemented with 0.5% DMSO were loaded to the syringe, 50 μM compound in SEC buffer (final 0.5%DMSO) was loaded to the cell, both samples were adjusted to 25 °C and degassed before loading. The experiment was carried out using the reference power of 10, with 19 injections. Data were analyzed using the MicroCal PEAQ-ITC Analysis Software.
Figure S5. Compound Ia as a negative control for DSF assay ,T m values of tested compounds and ITC result of […]
47. […] Data are shown as mean ± SEM, n=4. (B) EMSA assay result of compound Ia. (C) Melting curve of METTL16 in the DSF assay treated with different concentrations of Ia. Data are shown as mean ± SD, n=2. (D) T m values of DMSO control and compound Ia, 27,45,46, and 47, assay was conducted with two biological repeats in duplicate. Data are shown as mean ± SEM, n=4. (E) ITC validation of compound 47, using 700 μM METTL16 (1-291) protein to titrate 50 μM compound 47.
(1 picture or pasted object on this page, not shown here)

METTL16 MTD = molecular target: T5, METTL16 MTD (Homo sapiens, UniProt Q86W50); assay: Michaelis–Menten kinetics study, in vitro methylation assay at different SAM concentrations; format: biochemical; conditions: SAM from 75 µM, two-fold dilution
T5 construct: METTL16 MTD (1–291) was subcloned to pOPINB plasmid; His tag followed by HRV 3C cleavage site (N, cleaved yes); made in house; host or cells: E. coli Rosetta (DE3)
T5 sequence (Q86W50 1-291): T1 sequence (Q86W50 1-291)

Q: For `CN1C(=O)C(=C2SC(NS(=O)(=O)c3ccc(C(=O)O)cc3)=NC2=O)c2cc(Br)ccc21` [Compound 45], which “total m^6A RNA level, in words” value [1] is on record?
A: Its value is “increased the total m^6A mRNA levels”.

Q: And the “inhibition of METTL16–GGACU RNA binding in EMSA, in words” value [2]?
A: The value was “dose-dependently inhibited”.

Q: What about the IC50 [3] of the same compound?
A: The IC50 was 1.7 µM.

Q: What about the “MAT2A splicing, in words” value [4] of the same compound?
A: The value was “promoted MAT2A splicing”.

Q: And the “IC50 under different SAM concentrations (FP assay), in words” value [5]?
A: Its value is “remained”.

Q: And the “MAT2A splicing, in words” value [6]?
A: Its value is “promoted MAT2A splicing”.

Q: And the “total m^6A RNA level, in words” value [7]?
A: The value was “increased the total m^6A mRNA levels”.

Q: Which results are given for `O=C1N=C(NS(=O)(=O)c2ccc(C(=O)O)cc2)SC1=C1C(=O)Nc2ccc(Br)cc21` [Compound 47]?
A: Kd (METTL16 MTD (1-291)): 5.12 µM; inhibition of METTL16–GGACU RNA binding in EMSA, in words [2]: dose-dependently inhibited; IC50 [3]: 2.1 µM; IC50 under different SAM concentrations (FP assay), in words [5]: remained; inhibition mode with SAM (Michaelis–Menten kinetics) (METTL16 MTD): noncompetitive inhibition mode with SAM
